How the values were obtained:
[1] = interfacial tension of the oil to water; format: physicochemical
From the text: (§1) The smaller the interfacial tension of the oil towards water, the more polar it is. This is in line with the values of Log Poctanol/water.

[2] = Log P octanol/water of the oil; format: physicochemical
From the text: as §1

CCCCOC(=O)CCCCC(=O)OCCCC [Dibutyl Adipate]
Interf. tension to water, γ [1]: 14.3 mN/m
Log Poctanol/water [2]: 3.9

CCCCC(CC)COC(=O)OCC(CC)CCCC (stereo not shown) [Diethylhexyl Carbonate]
Interf. tension to water, γ [1]: 29.1 mN/m
Log Poctanol/water [2]: 6.8
